Data on 29 compounds can be found in US5665745A, “Heterocyclic compounds and their preparation and use” (Eli Lilly and Company, priority 1995, dated 1997).

Where two headings read alike, the source gives them in different places.

The target of test [1] is T1, muscarinic receptors (M1 -site, pirenzepine sensitive site) (Rattus norvegicus, UniProt P08482).
T1 construct: from tissue; host or cells: cerebral cortex membranes of male Wistar rats
T1 sequence (P08482 1-460): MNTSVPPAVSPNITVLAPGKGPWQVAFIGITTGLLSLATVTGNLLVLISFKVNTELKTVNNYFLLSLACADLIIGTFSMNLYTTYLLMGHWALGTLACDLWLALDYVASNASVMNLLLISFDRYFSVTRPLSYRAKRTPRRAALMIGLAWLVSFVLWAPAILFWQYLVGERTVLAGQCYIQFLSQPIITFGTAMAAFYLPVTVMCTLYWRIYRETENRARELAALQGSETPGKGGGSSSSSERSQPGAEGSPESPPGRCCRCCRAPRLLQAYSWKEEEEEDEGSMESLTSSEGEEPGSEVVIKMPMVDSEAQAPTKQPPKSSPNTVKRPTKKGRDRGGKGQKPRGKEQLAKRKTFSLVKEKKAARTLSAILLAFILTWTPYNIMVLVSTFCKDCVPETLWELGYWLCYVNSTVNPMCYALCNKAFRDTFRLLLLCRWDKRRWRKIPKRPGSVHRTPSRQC
The experiment in a line: inhibition of ^3 HPRZ (pirenzepine, [N-methyl-^3 H]) binding to rat cerebral cortex membranes. On the set-up: species or system rat (male Wistar. The method, boiled down: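 Male Wistar rat cortex membranes in 20 mM Hepes pH 7.4 were incubated with 1.0 nM (final) [3H]pirenzepine for 60 min at 20° C; nonspecific binding was defined with 1 μg/mL atropine. Filtration and scintillation counting were used, and IC50 was calculated from a single concentration assuming mass-action kinetics.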

For test [2], the target named is muscarinic acetylcholine receptors. The experiment in a line: inhibition of specific binding of ^3 H-Oxotremorine-M (^3 H-Oxo). The conditions noted are these: ^3 H-Oxotremorine 1.0 nM, rat cortex, 30 min. at 25° C. On the set-up: species or system rat (male Wistar. The procedure, abridged: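 Rat cortex membranes (male Wistar) in 20 mM Hepes pH 7.4 incubated with 1.0 nM ^3H-Oxotremorine-M (final) and test compound for 30 min at 25 °C; arecoline defines non-specific binding. Bound radioactivity by filtration and scintillation counting; IC50 (nM) from a single concentration via Co/Cx mass-action formula, reflecting high- and medium-affinity sites.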

[3] abbreviates: ^3 HPRZ 1.0 nM, rat cortex, 60 min. at 20° C., read-out: ^3 HPRZ IC50 (head from b208 on: Pir IC-50).

Broadly, the IC50 is the concentration that inhibits the measured activity by half. On to `N#Cc1ccc(CSc2nsnc2O[C@H]2CN3CCC[C@@H]2C3)cc1` (relative stereo) [Compound 49, (±)-endo-3-(4-Cyanobenzylthio)-4-(1-azabicyclo[3.2.1]octyl-6-oxy)-1,2,5-thiadiazole], for which the IC50 in test [1] (setting [3]) worked out at 1.9 nM; in test [2] it was 1.8 nM.

Consider `CCCCSc1nsnc1O[C@H]1CN2CCC[C@@H]1C2` (relative stereo) [Compound 70, (±)3-(1-Butylthio)-4-[endo-6-(1-azabicyclo[3.2.1]octyloxy)]-1,2,5-thiadiazole], for which the IC50 in test [1] (setting [3]) was found to be 0.65 nM; in test [2] it was 1.3 nM.

Take `CCCCOc1nsnc1O[C@H]1CN2CCC[C@@H]1C2` (relative stereo) [Compound 71, 3-(1-Butyloxy)-4-[endo-(+,-)-6-(1-azabicyclo[3.2.1]octyloxy)]-1,2,5-thiadiazole]: the concentration for half-maximal inhibition (IC50) was 1.15 nM in test [1] (setting [3]) and 1.1 nM in test [2].

Take `c1ccc(CCCSc2nsnc2O[C@H]2CN3CCC[C@@H]2C3)cc1` (relative stereo) [Compound 72, (±)3-(3-Phenylpropylthio)-4-[endo-6-(1-azabicyclo[3.2.1].cent.octyloxy)]-1,2,5-thiadiazole]: the values for the IC50 in test [1] (setting [3]) and in test [2] were 0.55 nM and 1.9 nM, respectively.

Regarding `CCCCSc1nsnc1O[C@@H]1CN2CC[C@@H]1C2` (relative stereo) [Compound 131, (±)exo-3-Butylthio-4-(1-azabicyclo[2.2.1]heptyl-3-oxy)-1,2,5-thiadiazole], the values for the half-inhibitory concentration (IC50) in test [1] and in test [2] were 46 nM and 5.6 nM, respectively.

`CCCCOc1nsnc1O[C@H]1C[C@@H]2CC[C@H]1N2` (relative stereo) [Compound 133, (±)-exo-3-Butyloxy-4-(7-azabicyclo[2.2.1]heptyl-3-oxy)-1,2,5-thiadiazole]: the IC50 in test [1] (setting [3]) and in test [2] was > 1000 nM each time.

For `CCCCCCOc1nsnc1O[C@@H]1CN2CCC[C@H]1C2` (relative stereo) [Compound 136, (±)-endo-3-Hexyloxy-4-(1-azabicyclo[3.2.1]octyl-6-oxy)-1,2,5-thiadiazole], the values for the IC50 in test [1] (setting [3]) and in test [2] were 6.42 nM and 2.73 nM, respectively.

Take `CCCCSc1nsnc1O[C@@H]1CNC[C@H]1O` (relative stereo) [Compound 146, (±)-trans-3-Butylthio-4-(4-hydroxy-pyrollidin-3-oxy)-1,2,5-thiadiazole]: the IC50 was > 1000 nM in test [1] (setting [3]) and 775 nM in test [2].

Regarding `c1ccc(OCCSc2nsnc2O[C@@H]2CN3CCC[C@H]2C3)cc1` (relative stereo) [Compound 156, (±)-endo-3-(2-Phenoxyethylthio)-4-(1-azabicyclo[3.2.1]octyl-6-oxy)-1,2,5-thiadiazole], the half-inhibitory concentration (IC50) came out at 0.6 nM in test [1] (setting [3]) and 1 nM in test [2].

For `FC(F)(F)CCCOc1nsnc1O[C@@H]1CN2CCC[C@H]1C2` (relative stereo) [Compound 167, (±)-endo-3-(4,4,4-Trifluorobutoxy)-4-(1-azabicyclo[3.2.1]octyl-6-oxy)-1,2,5-thiadiazole], the 50% inhibitory concentration (IC50) was found to be 2 nM in test [1] (setting [3]) and 2.8 nM in test [2].

As for `CC#CCOc1nsnc1O[C@@H]1CN2CCC[C@H]1C2` (relative stereo) [Compound 168], the figures for the IC50 in test [1] (setting [3]) and in test [2] were 6.4 nM and 1 nM, respectively.

Turning to `C/C=C/COc1nsnc1O[C@@H]1CN2CCC[C@H]1C2` (relative stereo) [Compound 169, (±)-endo-3-(trans-2-Butenyloxy)-4-(1-azabicyclo[3.2.1]octyl-6-oxy)-1,2,5-thiadiazole], the figures for the IC50 in test [1] (setting [3]) and in test [2] were 1.9 nM and 1 nM, respectively.

Regarding `CSCCOc1nsnc1O[C@@H]1CN2CCC[C@H]1C2` (relative stereo) [Compound 170, (±)-endo-3-(2-Methylthioethoxy)-4-(1-azabicyclo[3.2.1]octyl-6-oxy)-1,2,5-thiadiazole], the IC50 in test [1] (setting [3]) stood at 3 nM; in test [2], 1.5 nM.

As for `Cc1ncsc1CCOc1nsnc1O[C@@H]1CN2CCC[C@H]1C2` (relative stereo) [Compound 171, (±)-endo-3-(2-(4-Methyl-1,3-thiazol-5-yl)ethoxy)-4-(1-azabicyclo[3.2.1]octyl-6-oxy)-1,2,5-thiadiazole], the IC50 worked out at 27 nM in test [1] (setting [3]) and 19 nM in test [2].

As for `CSc1ccc(COc2nsnc2O[C@@H]2CN3CCC[C@H]2C3)cc1` (relative stereo) [Compound 172, (±)-endo-3-(4-Methylthiobenzyloxy)-4-(1-azabicyclo[3.2.1]octyl-6-oxy)-1,2,5-thiadiazole], the IC50 in test [1] (setting [3]) worked out at 10 nM; in test [2] it was 5.2 nM.

Regarding `c1csc(COc2nsnc2O[C@@H]2CN3CCC[C@H]2C3)c1` (relative stereo) [Compound 173, (±)-endo-3-(2-Thienylmethoxy)-4-(1-azabicyclo[3.2.1]octyl-6-oxy)-1,2,5-thiadiazole], the concentration for half-maximal inhibition (IC50) was found to be 1.4 nM in test [1] (setting [3]) and 1 nM in test [2].

On to `CC#CCCOc1nsnc1O[C@@H]1CN2CCC[C@H]1C2` (relative stereo) [Compound 175, (±)-endo-3-(3-Pentynyloxy)-4-(1-azabicyclo[3.2.1]octyl-6-oxy)-1,2,5-thiadiazole], for which the IC50 was found to be 2.7 nM in test [1] (setting [3]) and 0.74 nM in test [2].

In the case of `CCC#CCCOc1nsnc1O[C@@H]1CN2CCC[C@H]1C2` (relative stereo) [Compound 176, (±)-endo-3-(3-Hexynyloxy)-4-(1-azabicyclo[3.2.1]octyl-6-oxy)-1,2,5-thiadiazole], the IC50 in test [1] (setting [3]) was found to be 3 nM; in test [2], 1.3 nM.

Take `ClCCCOc1nsnc1O[C@@H]1CN2CCC[C@H]1C2` (relative stereo) [Compound 177, (±)-endo-3-(3-Chloropropoxy)-4-(1-azabicyclo[3.2.1]octyl-6-oxy)-1,2,5-thiadiazole]: the results for the IC50 in test [1] (setting [3]) and in test [2] were 2 nM and 1.1 nM, respectively.

`c1ccc2cc(CCOc3nsnc3O[C@@H]3CN4CCC[C@H]3C4)ccc2c1` (relative stereo) [Compound 178, (±)-endo-3-[2-(2-Napthyl)ethoxy]-4-(1-azabicyclo[3.2.1]octyl-6-oxy)-1,2,5-thiadiazole]: the half-maximal inhibitory concentration (IC50) in test [1] (setting [3]) was 61 nM; in test [2], 15 nM.

In the case of `CC(C)=CCCOc1nsnc1O[C@@H]1CN2CCC[C@H]1C2` (relative stereo) [Compound 180, (±)-endo-3-(4-Methyl-3-pentenyloxy)-4-(1-azabicyclo[3.2.1]octyl-6-oxy)-1,2,5-thiadiazole], the IC50 in test [1] (setting [3]) was determined as 11 nM; in test [2], 4.7 nM.

As for `C/C=C\COc1nsnc1O[C@@H]1CN2CCC[C@H]1C2` (relative stereo) [Compound 181, (±)-endo-3-(cis-2-Butenyloxy)-4-(1-azabicyclo[3.2.1]octyl-6-oxy)-1,2,5-thiadiazole], the IC50 in test [1] (setting [3]) amounted to 2.2 nM; in test [2], 1.1 nM.

`C1C[C@H]2CN(C1)C[C@H]2Oc1nsnc1OCC1CC1` (relative stereo) [Compound 182, (±)-endo-3-(cyclopropylmethoxy)-4-(1-azabicyclo[3.2.1]octyl-6-oxy)-1,2,5-thiadiazole]: the half-maximal inhibitory concentration (IC50) is 3.5 nM in test [1] (setting [3]) and 0.6 nM in test [2].

On to `COCCOc1nsnc1O[C@@H]1CN2CCC[C@H]1C2` (relative stereo) [Compound 183, (±)-endo-3-(2-Methoxyethoxy)-4-(1-azabicyclo[3.2.1]octyl-6-oxy)-1,2,5-thiadiazole], for which the values for the IC50 in test [1] (setting [3]) and in test [2] were 9.9 nM and 2.6 nM, respectively.

`C=CCCOc1nsnc1O[C@@H]1CN2CCC[C@H]1C2` (relative stereo) [Compound 184, (±)-endo-3-(3-Butenyloxy)-4-(1-azabicyclo[3.2.1]octyl-6-oxy)-1,2,5-thiadiazole]: the concentration for half-maximal inhibition (IC50) in test [1] (setting [3]) was found to be 2.2 nM; in test [2], 1.2 nM.

Take `C1C[C@H]2CN(C1)C[C@H]2Oc1nsnc1OCCC1CC1` (relative stereo) [Compound 185]: the concentration for half-maximal inhibition (IC50) is 2 nM in test [1] (setting [3]) and 0.76 nM in test [2].

In the case of `C#CCCOc1nsnc1O[C@@H]1CN2CCC[C@H]1C2` (relative stereo) [Compound 186, (±)-endo-3-(3-Butynyloxy)-4-(1-azabicyclo[3.2.1]octyl-6-oxy)-1,2,5-thiadiazole], the IC50 in test [1] (setting [3]) stood at 2.8 nM; in test [2] it was 0.59 nM.

In the case of `FC(F)(F)C(F)(F)C(F)(F)COc1nsnc1O[C@@H]1CN2CCC[C@H]1C2` (relative stereo) [Compound 187, (±)-endo-3-(4,4,4,3,3,2,2-Heptafluorobutoxy)-4-(1-azabicyclo[3.2.1]octyl-6-oxy)-1,2,5-thiadiazole], the 50% inhibitory concentration (IC50) in test [1] was 1.6 nM; in test [2], 2.8 nM.

Take `FC(F)(F)c1cccc(CCOc2nsnc2O[C@@H]2CN3CCC[C@H]2C3)c1` (relative stereo) [Compound 188, (±)-endo-3-[2-(3-Trifluoromethylphenyl)ethoxy]-4-(1-azabicyclo[3.2.1]octyl-6-oxy)-1,2,5-thiadiazole]: the IC50 in test [1] (setting [3]) amounted to 43 nM; in test [2], 12 nM.
